According to PubChem BioAssay AID248 (DTP/NCI, 2004):
Values joined by “and” are separate entries in the source; they are usually repeats but may differ in a detail not shown here. Equal entries are not always repeated. Toxic doses and inconclusive results are not listed. No stated cut-off is given here; in the data, active means T/C of 150% or more; inactive means T/C below 125%.

Tested on: L1210 leukemia ip in BDF1 mice, survival T/C
Experiment: NCI In Vivo Anticancer Drug Screen. Data for tumor model L1210 Leukemia (intraperitoneal) in B6D2F1 (BDF1) mice
Settings: endpoint: mean survival time, higher = longer survival
Outline: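 Tumor was transplanted into mice, which were then dosed with test compound or vehicle alone. Survival was recorded for each group, and the treated figure was expressed relative to the control figure.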

[1] = dose: 100.0 mg/kg/injection, schedule: Q01DX001 (ip), vehicle: saline
[2] = dose: 100.0 mg/kg/injection, schedule: Q01DX009 (ip), vehicle: saline with Tween-80
[3] = dose: 100.0 mg/kg/injection, schedule: Q04DX003 (ip), vehicle: saline
[4] = dose: 200.0 mg/kg/injection, schedule: Q01DX001 (ip), vehicle: saline
[5] = dose: 200.0 mg/kg/injection, schedule: Q01DX009 (ip), vehicle: saline with Tween-80
[6] = dose: 200.0 mg/kg/injection, schedule: Q04DX003 (ip), vehicle: saline
[7] = dose: 400.0 mg/kg/injection, schedule: Q01DX001 (ip), vehicle: saline
[8] = dose: 400.0 mg/kg/injection, schedule: Q01DX009 (ip), vehicle: saline with Tween-80
[9] = dose: 400.0 mg/kg/injection, schedule: Q04DX003 (ip), vehicle: saline
[10] = dose: 100.0 mg/kg/injection, schedule: Q04DX003 (ip), vehicle: saline with Tween-80
[11] = dose: 100.0 mg/kg/injection, schedule: Q01DX009 (ip), vehicle: saline
[12] = dose: 200.0 mg/kg/injection, schedule: Q01DX009 (ip), vehicle: saline
[13] = dose: 400.0 mg/kg/injection, schedule: Q01DX009 (ip), vehicle: saline
[14] = dose: 50.0 mg/kg/injection, schedule: Q01DX001 (ip), vehicle: saline
[15] = dose: 100.0 mg/kg/injection, schedule: Q04DX002 (ip), vehicle: Klucel (hydroxypropylcellulose) (HPC)
[16] = dose: 100.0 mg/kg/injection, schedule: Q01DX001 (ip), vehicle: saline with Tween-80
[17] = dose: 200.0 mg/kg/injection, schedule: Q01DX001 (ip), vehicle: saline with Tween-80
[18] = dose: 200.0 mg/kg/injection, schedule: Q04DX002 (ip), vehicle: Klucel (hydroxypropylcellulose) (HPC)
[19] = dose: 25.0 mg/kg/injection, schedule: Q01DX009 (ip), vehicle: saline
[20] = dose: 25.0 mg/kg/injection, schedule: Q04DX003 (ip), vehicle: saline
[21] = dose: 50.0 mg/kg/injection, schedule: Q04DX003 (ip), vehicle: saline

Measured: T/C

OCC(O)C(O)C(O)C(O)C(O)CO (stereo not given)
inactive: [1] 98 % of control | [2] 96 % of control | [3] 94 % of control | [4] 106 % of control | [5] 110 % of control | [6] 97 % of control | [7] 95 % of control | [8] 90 % of control | [9] 106 % of control

Brc1cscc1-c1c2ccccc2cc2ccccc12
inactive: dose: 50.0 mg/kg/injection, schedule: Q01DX009 (ip), vehicle: saline with Tween-80 106 % of control | [2] 98 % of control | [5] 98 % of control

O=C1NC(c2ccccc2)(c2ccccc2)C(=O)N1CCN(CCCl)CCCl
inactive: dose: 12.5 mg/kg/injection, schedule: Q01DX009 (ip), vehicle: saline with Tween-80 116 % of control | dose: 25.0 mg/kg/injection, schedule: Q01DX009 (ip), vehicle: saline with Tween-80 102 % of control | dose: 50.0 mg/kg/injection, schedule: Q04DX003 (ip), vehicle: saline with Tween-80 105 % of control | [2] 121 % of control | [10] 116 % of control and 121 % of control

NC(N)=S
inactive: [11] 103 % of control | dose: 100.0 mg/kg/injection, schedule: Q01DX015 (oral), vehicle: saline 97 % of control and 121 % of control | dose: 100.0 mg/kg/injection, schedule: Q04DX002 (ip), vehicle: saline 100 % of control | [12] 101 % of control | dose: 200.0 mg/kg/injection, schedule: Q01DX015 (oral), vehicle: saline 100 % of control and 121 % of control | dose: 200.0 mg/kg/injection, schedule: Q04DX002 (ip), vehicle: saline 113 % of control | [13] 103 % of control | dose: 400.0 mg/kg/injection, schedule: Q01DX015 (oral), vehicle: saline 122 % of control | dose: 400.0 mg/kg/injection, schedule: Q04DX002 (ip), vehicle: saline 95 % of control

COC(=O)C1ON(C(=O)c2ccccc2)C(C)C2OC12 (stereo not given)
inactive: dose: 100.0 mg/kg/injection, schedule: Q04DX003 (ip), vehicle: Klucel (hydroxypropylcellulose) (HPC) 103 % of control | dose: 200.0 mg/kg/injection, schedule: Q04DX003 (ip), vehicle: Klucel (hydroxypropylcellulose) (HPC) 100 % of control | dose: 400.0 mg/kg/injection, schedule: Q04DX003 (ip), vehicle: Klucel (hydroxypropylcellulose) (HPC) 96 % of control

CCOc1ccc(NC(C)=O)c(OC(C)=O)c1
inactive: dose: 75.0 mg/kg/injection, schedule: Q01DX001 (ip), vehicle: carboxymethylcellulose (CMC) 95 % of control and 100 % of control | dose: 150.0 mg/kg/injection, schedule: Q01DX001 (ip), vehicle: carboxymethylcellulose (CMC) 100 % of control | dose: 300.0 mg/kg/injection, schedule: Q01DX001 (ip), vehicle: carboxymethylcellulose (CMC) 93 % of control

CS(=O)(=O)n1c(CCl)nc2ccccc21
inactive: [14] 96 % of control | [1] 104 % of control | [4] 102 % of control | [7] 102 % of control

NNC(=O)CNc1cccc(Cl)c1F
inactive: dose: 25.0 mg/kg/injection, schedule: Q04DX002 (ip), vehicle: Klucel (hydroxypropylcellulose) (HPC) 92 % of control | dose: 50.0 mg/kg/injection, schedule: Q04DX002 (ip), vehicle: Klucel (hydroxypropylcellulose) (HPC) 92 % of control | [15] 122 % of control

COc1cc(C)ccc1I
inactive: dose: 50.0 mg/kg/injection, schedule: Q01DX001 (ip), vehicle: saline with Tween-80 100 % of control | [16] 100 % of control | [17] 100 % of control

CC1(C)C2CCC1(CBr)C(=O)C2 (stereo not given)
inactive: [18] 100 % of control

CCc1ccc(N=Nc2ccc(NC)cc2)cc1
inactive: dose: 100.0 mg/kg/injection, schedule: Q01DX001 (ip), vehicle: carboxymethylcellulose (CMC) 98 % of control | dose: 200.0 mg/kg/injection, schedule: Q01DX001 (ip), vehicle: carboxymethylcellulose (CMC) 93 % of control | dose: 400.0 mg/kg/injection, schedule: Q01DX001 (ip), vehicle: carboxymethylcellulose (CMC) 98 % of control

Cc1nn(C)c2c(N)ncnc12
inactive: dose: 75.0 mg/kg/injection, schedule: Q01DX001 (ip), vehicle: other 100 % of control | dose: 150.0 mg/kg/injection, schedule: Q01DX001 (ip), vehicle: other 102 % of control | dose: 300.0 mg/kg/injection, schedule: Q01DX001 (ip), vehicle: other 98 % of control

Nc1ccc(N=Nc2ccc(C(=O)Nc3ccc4cc(S(=O)(=O)O)ccc4c3)cc2)c(N)c1N=Nc1ccc(N=Nc2ccc(O)c(C(=O)O)c2)cc1
inactive: dose: 25.0 mg/kg/injection, schedule: Q01DX001 (ip), vehicle: saline 94 % of control | [19] 105 % of control | [20] 109 % of control | [14] 90 % of control | dose: 50.0 mg/kg/injection, schedule: Q01DX009 (ip), vehicle: saline 94 % of control | [21] 95 % of control | [1] 97 % of control | [11] 87 % of control | [3] 102 % of control

COc1cc(NS(=O)(=O)c2ccc(C)cc2)c2c(c1N)C(=O)c1ccccc1C2=O
inactive: [2] 105 % of control | [10] 98 % of control | [5] 94 % of control | dose: 200.0 mg/kg/injection, schedule: Q04DX003 (ip), vehicle: saline with Tween-80 98 % of control | [8] 100 % of control | dose: 400.0 mg/kg/injection, schedule: Q04DX003 (ip), vehicle: saline with Tween-80 93 % of control

C=CC[Se]c1ncnc2c1c(C#N)cn2C1OC(CO)C(O)C1O (stereo not given)
inactive: dose: 6.25 mg/kg/injection, schedule: Q01DX009 (ip), vehicle: saline 103 % of control | dose: 12.5 mg/kg/injection, schedule: Q01DX009 (ip), vehicle: saline 107 % of control | [19] 92 % of control

CN(C)c1ccc(N(C)C)nn1
inactive: [2] 104 % of control

O=C1/C(=C\c2ccccc2)OC(c2ccccc2)O/C1=C/c1ccccc1 (stereo not given)
inactive: [11] 91 % of control | [3] 91 % of control | [12] 98 % of control | [6] 96 % of control | [13] 88 % of control | [9] 98 % of control

Cc1ccc(C(O)(c2ccccc2)C2C(c3ccccc3)N2C2CCCCC2)cc1 (stereo not given)
inactive: dose: 100.0 mg/kg/injection, schedule: Q04DX003 (ip), vehicle: saline sonified 92 % of control | dose: 200.0 mg/kg/injection, schedule: Q04DX003 (ip), vehicle: saline sonified 87 % of control | dose: 400.0 mg/kg/injection, schedule: Q04DX003 (ip), vehicle: saline sonified 89 % of control

Cc1ccc(Nc2cc(N)nc(N)n2)cc1C
inactive: dose: 25.0 mg/kg/injection, schedule: Q01DX Z (ip), vehicle: methylcellulose (MC) 97 % of control | dose: 50.0 mg/kg/injection, schedule: Q01DX Z (ip), vehicle: methylcellulose (MC) 114 % of control

CCSC1C(O)C(CO)OC1n1ccc(=O)[nH]c1=O (stereo not given)
inactive: dose: 100.0 mg/kg/injection, schedule: Q01DX005 (ip), vehicle: saline 92 % of control | dose: 200.0 mg/kg/injection, schedule: Q01DX005 (ip), vehicle: saline 101 % of control

C=C(CCCC)CNCCOC(=O)c1ccc([N+](=O)[O-])cc1
inactive: dose: 12.5 mg/kg/injection, schedule: Q04DX003 (ip), vehicle: saline 98 % of control | [20] 93 % of control | [21] 100 % of control

BrCCCCCc1ccccc1
inactive: [1] 106 % of control | [4] 107 % of control | [7] 101 % of control

O=C(O)c1ccc(CCc2ccc(Cl)c(S(=O)(=O)F)c2)cc1
inactive: [16] 94 % of control | [17] 92 % of control | dose: 400.0 mg/kg/injection, schedule: Q01DX001 (ip), vehicle: saline with Tween-80 91 % of control

CCCCCCC[n+]1ccc(C#N)cc1
inactive: dose: 75.0 mg/kg/injection, schedule: Q01DX001 (ip), vehicle: saline 103 % of control

CCCCCC(O)C(CO)CCCC (stereo not given)
inactive: [2] 100 % of control | [5] 95 % of control | [8] 94 % of control

CC1=CC(=C(C#N)C#N)CC(C)(C)C1
inactive: [15] 101 % of control | [18] 101 % of control | dose: 400.0 mg/kg/injection, schedule: Q04DX002 (ip), vehicle: Klucel (hydroxypropylcellulose) (HPC) 93 % of control

C=C[Si](C)(OCC)OCC
inactive: [1] 93 % of control | [4] 90 % of control | [7] 101 % of control
